Data reported in ChEMBL document CHEMBL4828780, “Novel Compounds for Preventing SARS-CoV-2 Viral Replication and Treating COVID-19” (ACS Med Chem Lett, 2021).

Assay: Inhibition of SARS-CoV 3C-like protease using Dabcyl-KTSAVLQ-SGFRKME-Edans peptide as substrate incubated for 60 mins by FRET assay

COc1cccc2[nH]c(C(=O)N[C@@H](CC(C)C)C(=O)N[C@@H](C[C@@H]3CCNC3=O)C(=O)COC(=O)c3ccncc3)cc12
Ki: 0.598 nM

COc1cccc2[nH]c(C(=O)N[C@@H](CC(C)C)C(=O)N[C@@H](C[C@@H]3CCNC3=O)C(=O)COC(=O)[C@H]3CCCCN3C)cc12
Ki: 1.42 nM

COc1cccc2[nH]c(C(=O)N[C@@H](CC(C)C)C(=O)N[C@@H](C[C@@H]3CCNC3=O)C(=O)COC(=O)[C@H]3CCCN3C)cc12
Ki: 0.0321 nM

COc1cccc2[nH]c(C(=O)N[C@@H](CC(C)C)C(=O)N[C@@H](C[C@@H]3CCNC3=O)C(=O)COC(=O)c3c(C)ncnc3C)cc12
Ki: 0.928 nM

COc1cccc2[nH]c(C(=O)N[C@@H](CC(C)C)C(=O)N[C@@H](C[C@@H]3CCNC3=O)C(=O)COC(=O)[C@@H]3CCCN3C)cc12
Ki: 2.47 nM

COc1cccc2[nH]c(C(=O)N[C@@H](CC(C)C)C(=O)N[C@@H](C[C@@H]3CCNC3=O)C(=O)COC(=O)CN(C)C)cc12
Ki: 2.98 nM
